What was measured:
SIRT1 [1] = target: T1, SIRT1 (Homo sapiens, UniProt Q96EB6); experiment: TAMRA based mass spectrometry assay of SIRT1 deacetylase activation; type: biochemical; conditions: TAMRA peptide substrate; for TAMRA EC1.5 (μM): concentration that results in 150% activation of SIRT1; for TAMRA % Fold Act: percent maximum fold activation relative to control (100%)
T1 sequence (Q96EB6 1-747): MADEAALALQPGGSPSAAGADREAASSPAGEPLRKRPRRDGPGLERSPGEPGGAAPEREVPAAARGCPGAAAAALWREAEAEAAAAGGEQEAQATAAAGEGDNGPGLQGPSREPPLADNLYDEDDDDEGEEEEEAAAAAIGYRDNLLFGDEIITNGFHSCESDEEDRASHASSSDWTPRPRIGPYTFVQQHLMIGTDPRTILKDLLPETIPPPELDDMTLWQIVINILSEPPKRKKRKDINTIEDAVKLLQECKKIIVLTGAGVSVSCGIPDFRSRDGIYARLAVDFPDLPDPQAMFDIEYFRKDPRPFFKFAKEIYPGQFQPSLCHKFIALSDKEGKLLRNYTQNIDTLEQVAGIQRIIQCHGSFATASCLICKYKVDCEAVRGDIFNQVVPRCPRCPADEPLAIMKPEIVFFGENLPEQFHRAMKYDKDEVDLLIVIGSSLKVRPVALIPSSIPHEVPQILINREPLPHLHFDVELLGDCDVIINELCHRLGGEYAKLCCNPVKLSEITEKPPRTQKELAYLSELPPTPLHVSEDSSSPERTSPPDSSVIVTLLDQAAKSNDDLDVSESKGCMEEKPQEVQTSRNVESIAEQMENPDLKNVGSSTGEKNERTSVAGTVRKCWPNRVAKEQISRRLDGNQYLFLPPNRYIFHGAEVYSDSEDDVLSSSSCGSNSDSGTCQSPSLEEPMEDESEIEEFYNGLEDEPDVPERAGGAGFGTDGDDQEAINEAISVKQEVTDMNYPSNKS
Source text: (§1) Mass spectrometry based assays were used to identify modulators of SIRT1 activity. The TAMRA based assay utilized a peptide having 20 amino acid residues as follows: Ac-EE-K(biotin)-GQSTSSHSK(Ac)NleSTEG-K(5TMR)-EE-NH2 (SEQ ID NO: 1), wherein K(Ac) is an acetylated lysine residue and Nle is a norleucine. The peptide was labeled with the fluorophore 5TMR (excitation 540 nm/emission 580 nm) at the C-terminus. The sequence of the peptide substrate was based on p53 with several modifications. In addition, the methionine residue naturally present in the sequence was replaced with the norleucine because the methionine may be susceptible to oxidation during synthesis and purification. The Trp based assay utilized a peptide having an amino acid residues as follows: Ac-R-H-K-K(Ac)-W-NH2 (SEQ ID NO: 2).
The TAMRA based mass spectrometry assay was conducted as follows: 0.5 μM peptide substrate and 120 μM βNAD^+ was incubated with 10 nM SIRT1 for 25 minutes at 25° C. in a reaction buffer (50 mM Tris-acetate pH 8, 137 mM NaCl, 2.7 mM KCl, 1 mM MgCl2, 5 mM DTT, 0.05% BSA). The SIRT1 protein was obtained by cloning the SirT1 gene into a T7-promoter containing vector, which was then transformed and expressed in BL21(DE3) bacterial cells. Test compound was added at varying concentrations to this reaction mixture and the resulting reactions were monitored. After the 25 minute incubation with SIRT1, 10 μL of 10% formic acid was added to stop the reaction. The resulting reactions were sealed and frozen for later mass spec analysis. Determination of the amount of deacetylated substrate peptide formed (or, alternatively, the amount of O-acetyl-ADP-ribose (OAADPR) generated) by the sirtuin-mediated NAD-dependent deacetylation reaction allowed for the precise measurement of relative SIRT1 activity in the presence of varying concentrations of the test compound versus control reactions lacking the test compound.
(§2) A control for inhibition of sirtuin activity was conducted by adding 1 μL of 500 mM nicotinamide as a negative control at the start of the reaction (e.g., permits determination of maximum sirtuin inhibition). A control for activation of sirtuin activity was conducted using 10 nM of sirtuin protein, with 1 μL of DMSO in place of compound, to determine the amount of deacetylation of the substrate at a given time point within the linear range of the assay. This time point was the same as that used for test compounds and, within the linear range, the endpoint represents a change in velocity. For the above assay, SIRT1 protein was expressed and purified as follows. The SirT1 gene was cloned into a T7-promoter containing vector and transformed into BL21(DE3). The protein was expressed by induction with 1 mM IPTG as an N-terminal His-tag fusion protein at 18° C. overnight and harvested at 30,000×g. Cells were lysed with lysozyme in lysis buffer (50 mM Tris-HCl, 2 mM Tris[2-carboxyethyl] phosphine (TCEP), 10 μM ZnCl2, 200 mM NaCl) and further treated with sonication for 10 min for complete lysis. The protein was purified over a Ni-NTA column (Amersham) and fractions containing pure protein were pooled, concentrated and run over a sizing column (Sephadex S200 26/60 global). The peak containing soluble protein was collected and run on an Ion-exchange column (MonoQ). Gradient elution (200 mM-500 mM NaCl) yielded pure protein. This protein was concentrated and dialyzed against dialysis buffer (20 mM Tris-HCl, 2 mM TCEP) overnight. The protein was aliquoted and frozen at −80° C. until further use.
Sirtuin-modulating compounds of Formula (I) that activated SIRT1 were identified using the assay described above and are shown below in Table 1. The EC1.5 values represent the concentration of test compounds that result in 150% activation of SIRT1. The EC1.5 values for the activating compounds of Formula (I) are represented by A (EC1.5<1 μM), B (EC1.5 1−25 μM), C (EC1.5>25 μM). […]

SIRT1 [2] = target: T1, SIRT1; experiment: Trp mass spectrometry assay of SIRT1 deacetylase activation; type: biochemical; conditions: Trp peptide substrate; for TRP EC1.5 (μM): concentration that results in 150% activation of SIRT1; for TRP % Fold Act: percent maximum fold activation relative to control (100%)
Source text: as §1
The Trp mass spectrometry assay was conducted as follows. 0.5 μM peptide substrate and 120 μM βNAD^+ were incubated with 10 nM SIRT1 for 25 minutes at 25° C. in a reaction buffer (50 mM HEPES pH 7.5, […], 1 mM DTT, 0.05% BSA). The SIRT1 protein was obtained by cloning the SirT1 gene into a T7-promoter containing vector, which was then expressed in BL21(DE3) bacterial cells and purified as described in further detail below. Test compound was added at varying concentrations to this reaction mixture and the resulting reactions were monitored. After the 25 minute incubation with SIRT1, 10 μL of 10% formic acid was added to stop the reaction. The resulting reactions were sealed and frozen for later mass spec analysis. The relative SIRT1 activity was then determined by measuring the amount of O-acetyl-ADP-ribose (OAADPR) formed (or, alternatively, the amount of deacetylated Trp peptide generated) by the NAD-dependent sirtuin deacetylation reaction in the presence of varying concentrations of the test compound versus control reactions lacking the test compound. The degree to which the test agent activated deacetylation by SIRT1 was expressed as EC1.5 (i.e., the concentration of compound required to increase SIRT1 activity by 50% over the control lacking test compound), and Percent Maximum Activation (i.e., the maximum activity relative to control (100%) obtained for the test compound).
as §2
Sirtuin-modulating compounds of Formula (I) that activated SIRT1 were identified using the assay described above and are shown below in Table 1. […]

| SMILES | TAMRA EC1.5 (μM) (SIRT1 [1]) | TAMRA % Fold Act (SIRT1 [1]) | TRP EC1.5 (μM) (SIRT1 [2]) | TRP % Fold Act (SIRT1 [2]) |
| --- | --- | --- | --- | --- |
| O=C(Nc1ccccn1)c1cc(N2CCOCC2)nn2cc(-c3ccccc3C(F)(F)F)nc12 [Compound 44] | B (EC1.5 1−25 μM) | B (Fold Activation<350%) | C (EC1.5>25 μM) | B (Fold Activation<350%) |
| O=C(Nc1cccnc1)c1cc(N2CCOCC2)nn2cc(-c3ccccc3C(F)(F)F)nc12 [Compound 45] | B (EC1.5 1−25 μM) | A (Fold activation≧350%) | B (EC1.5 1−25 μM) | B (Fold Activation<350%) |
| O=C(Nc1ccncc1)c1cc(N2CCOCC2)nn2cc(-c3ccccc3C(F)(F)F)nc12 [Compound 46] | A (EC1.5<1 μM) | A (Fold activation≧350%) | C (EC1.5>25 μM) | B (Fold Activation<350%) |
| O=C(Nc1nccs1)c1cc(N2CCOCC2)nn2cc(-c3cccc(C(F)(F)F)c3)nc12 [Compound 47] | C (EC1.5>25 μM) | B (Fold Activation<350%) | C (EC1.5>25 μM) | B (Fold Activation<350%) |
| Cc1cnc(NC(=O)c2cc(N3CCOCC3)nn3cc(-c4cccc(C(F)(F)F)c4)nc23)s1 [Compound 48] | C (EC1.5>25 μM) | B (Fold Activation<350%) | C (EC1.5>25 μM) | B (Fold Activation<350%) |
| O=C(Nc1ccccn1)c1cc(N2CCOCC2)nn2cc(-c3cccc(C(F)(F)F)c3)nc12 [Compound 49] | C (EC1.5>25 μM) | B (Fold Activation<350%) | C (EC1.5>25 μM) | B (Fold Activation<350%) |
| O=C(Nc1ccncc1)c1cc(N2CCOCC2)nn2cc(-c3cccc(Cl)c3)nc12 [Compound 54] | C (EC1.5>25 μM) | B (Fold Activation<350%) | C (EC1.5>25 μM) | B (Fold Activation<350%) |
| O=C(Nc1ccnc2cc(-c3ccccc3C(F)(F)F)nn12)c1cscn1 [Compound 55] | B (EC1.5 1−25 μM) | A (Fold activation≧350%) | C (EC1.5>25 μM) | B (Fold Activation<350%) |
| Cc1nc(C(=O)Nc2ccnc3cc(-c4ccccc4C(F)(F)F)nn23)cs1 [Compound 56] | A (EC1.5<1 μM) | A (Fold activation≧350%) | C (EC1.5>25 μM) | B (Fold Activation<350%) |
| Cc1nc(C(=O)Nc2ccnc3cc(-c4ccccc4C(F)(F)F)nn23)c(C)s1 [Compound 57] | A (EC1.5<1 μM) | A (Fold activation≧350%) | B (EC1.5 1−25 μM) | B (Fold Activation<350%) |
| Cc1cnc(C(=O)Nc2ccnc3cc(-c4ccccc4C(F)(F)F)nn23)s1 [Compound 58] | C (EC1.5>25 μM) | B (Fold Activation<350%) | C (EC1.5>25 μM) | B (Fold Activation<350%) |
| O=C(Nc1ccnc2cc(-c3ccccc3C(F)(F)F)nn12)c1ccccn1 [Compound 59] | A (EC1.5<1 μM) | A (Fold activation≧350%) | B (EC1.5 1−25 μM) | B (Fold Activation<350%) |
| O=C(Nc1ccnc2cc(-c3ccccc3C(F)(F)F)nn12)c1ncccn1 [Compound 60] | A (EC1.5<1 μM) | A (Fold activation≧350%) | B (EC1.5 1−25 μM) | B (Fold Activation<350%) |
| O=C(Nc1ccnc2cc(-c3ccccc3C(F)(F)F)nn12)c1cnccn1 [Compound 61] | A (EC1.5<1 μM) | A (Fold activation≧350%) | C (EC1.5>25 μM) | B (Fold Activation<350%) |
| O=C(Nc1ccnc2cc(-c3ccccc3C(F)(F)F)nn12)c1ccncn1 [Compound 62] | B (EC1.5 1−25 μM) | B (Fold Activation<350%) | C (EC1.5>25 μM) | B (Fold Activation<350%) |
| O=C(Nc1ccnc2cc(-c3ccccc3C(F)(F)F)nn12)c1cccc(N2CCOCC2)n1 [Compound 63] | A (EC1.5<1 μM) | B (Fold Activation<350%) | C (EC1.5>25 μM) | B (Fold Activation<350%) |
| O=C(Nc1ccnc2cc(-c3ccccc3C(F)(F)F)nn12)c1cccc(N2CCC2)n1 [Compound 64] | A (EC1.5<1 μM) | B (Fold Activation<350%) | C (EC1.5>25 μM) | B (Fold Activation<350%) |
| O=C(Nc1ccnc2cc(-c3ccccc3C(F)(F)F)nn12)c1cccc(OCC(O)CO)n1 (stereo not drawn) [Compound 65] | A (EC1.5<1 μM) | A (Fold activation≧350%) | A (EC1.5<1 μM) | A (Fold activation≧350%) |

— patent US20140288052A1, “SUBSTITUTED BICYCLIC AZA-HETEROCYCLES AND ANALOGUES AS SIRTUIN MODULATORS” (GlaxoSmithKline, LLC, priority 2011, published 2014)
